Data set [1] has as its system Staphylococcus aureus. The experiment in a line: Antibacterial activity against Staphylococcus aureus ATCC 6538 assessed as inhibition of bacterial growth incubated for 16 to 24 hrs by broth microdilution method. Format: functional. The following applies: time 16-24 hrs.
Data set [2] deals with Staphylococcus epidermidis. The experiment in a line: Antibacterial activity against Staphylococcus epidermidis ATCC 12228 assessed as inhibition of bacterial growth incubated for 16 to 24 hrs by broth microdilution method. The following applies: time 16-24 hrs. Format: functional.
Data set [3] concerns Bacillus subtilis. The experiment in a line: Antibacterial activity against Bacillus subtilis ATCC 6633 assessed as inhibition of bacterial growth incubated for 16 to 24 hrs by broth microdilution method. The class given is functional. As to conditions: time 16-24 hrs. (Broth dilution looks for growth in wells or tubes with falling amounts of substance.)
Data set [4] relates to Staphylococcus aureus. Put plainly: Antibacterial activity against methicillin-resistant Staphylococcus aureus CIP106760 assessed as inhibition of bacterial growth incubated for 16 to 24 hrs by broth microdilution method. The class given is functional. As to conditions: time 16-24 hrs.
In data set [5] the test system is Enterococcus faecalis. The experiment in a line: Antibacterial activity against Enterococcus faecalis ATCC 29212 assessed as inhibition of bacterial growth incubated for 16 to 24 hrs by broth microdilution method. Format: functional. As to conditions: time 16-24 hrs.
In data set [6] the test system is Enterococcus faecalis. The experiment in a line: Antibacterial activity against vancomycin-resistant Enterococcus faecalis ATCC 51299 assessed as inhibition of bacterial growth incubated for 16 to 24 hrs by broth microdilution method. Format: functional. As to conditions: time 16-24 hrs.
Data set [7] has as its system Staphylococcus aureus. Put plainly: Antibacterial activity against methicillin-sensitive Staphylococcus aureus ATCC 25923 assessed as inhibition of bacterial growth incubated for 16 to 24 hrs by broth microdilution method. Format: functional. The following applies: time 16-24 hrs.
A short description of data set [8]: Cytotoxicity against human HaCaT cells assessed as cell viability at 50 uM after 24 hrs by MTT assay. Format: cell-based. The following applies: HaCaT cells, read-out: Activity.
Data set [9] in a line: Toxicity in Saccharomyces cerevisiae ATCC 2601 assessed as reduction in cell viability measured after 24 hrs by microdilution method. As to conditions: Saccharomyces cerevisiae, Saccharomyces cerevisiae ATCC 2601 cells.
Data set [10] concerns HaCaT. Put plainly: Cytotoxicity against human HaCaT cells assessed as reduction in cell viability at 50 uM after 24 hrs by MTT assay. The class given is cell-based. In general terms: Tetrazolium assays rely on reduction of a dye to a coloured formazan, in cell work by metabolically active cells.
A short description of data set [11]: Antioxidant activity assessed as DPPH radical scavenging activity at 10 ug/ml by DPPH assay relative to control. The class given is functional. As to conditions: dose 10.0 µg/ml. (DPPH is a stable violet radical that fades when it is reduced.)
The nature of data set [12]: Toxicity in Artemia salina assessed as mortality at 10 ug/ml measured after 24 hrs. The following applies: at 10 µg/mL.
The subject of data set [13] is MRC5. The experiment in a line: Cytotoxicity against human MRC5 cells assessed as reduction in cell viability measured after 24 hrs by MTT assay. The class given is cell-based. The following applies: MRC5, 24 h.

≈ marks a conversion by molar mass, not a printed value.

In general, MBC refers to the smallest concentration meeting the test's criterion for killing. For orientation: MIC means the lowest concentration found to suppress growth. Turning to `Cc1ccccc1C(c1cc([N+](=O)[O-])ccc1O)N1CCc2c(C#N)cccc21` (stereo unspecified), the MBC was 20.3 µM (≈ 7.82 µg/mL) in data set [1]; 18.9 µM (≈ 7.28 µg/mL) in data set [2]; 18.9 µM (≈ 7.28 µg/mL) in data set [3]; 20.3 µM (≈ 7.82 µg/mL) in [4]; 81.1 µM (≈ 31.3 µg/mL) in data set [5]; 162 µM (≈ 62.4 µg/mL) in [6]. The MBC in data set [7] amounted to 81.1 µM (≈ 31.3 µg/mL). Moreover, the minimal inhibitory concentration (MIC) amounted to 5.07 µM (≈ 1.95 µg/mL) in [1]; 2.36 µM (≈ 0.91 µg/mL) in data set [2]; 4.71 µM (≈ 1.82 µg/mL) in data set [3]; 5.07 µM (≈ 1.95 µg/mL) in data set [4]; 5.07 µM (≈ 1.95 µg/mL) in data set [5]; 10.1 µM (≈ 3.89 µg/mL) in data set [6]. For the same compound, the MIC in [7] came out at 10.1 µM (≈ 3.89 µg/mL).
As usually defined, the IC50 is the concentration that gives 50% inhibition. As to `Cc1ccccc1C(c1cc([N+](=O)[O-])ccc1O)N1CCc2cc(Cl)ccc21` (stereo unspecified), the MBC in [1] is 4.95 µM (≈ 1.95 µg/mL); in data set [2], 2.36 µM (≈ 0.932 µg/mL); in data set [3] it was 4.71 µM (≈ 1.86 µg/mL); in [4], 2.47 µM (≈ 0.975 µg/mL); in data set [5] it was 9.89 µM (≈ 3.91 µg/mL); in data set [6] it was 158 µM (≈ 62.4 µg/mL). Besides, the MBC in [7] was 39.6 µM (≈ 15.6 µg/mL). In addition, the MIC was 1.24 µM (≈ 0.49 µg/mL) in data set [1]; < 1.18 µM in [2]; < 1.18 µM in data set [3]; 1.24 µM (≈ 0.49 µg/mL) in data set [4]; 1.24 µM (≈ 0.49 µg/mL) in data set [5]; 2.47 µM (≈ 0.975 µg/mL) in [6]. The MIC in data set [7] worked out at 2.47 µM (≈ 0.975 µg/mL). In addition, the viability at 24 h, 50 µM in [8] amounted to 3%. Also, the IC50 at 24 h in data set [9] is > 100 µM. In addition, the Activity entry in data set [10] is given as “Toxic”.
For the compound `Cc1ccc(C(c2cc([N+](=O)[O-])ccc2O)N2CCc3c(C#N)cccc32)cc1` (stereo unspecified), the MBC stood at 40.5 µM (≈ 15.6 µg/mL) in data set [1]; 302 µM (≈ 116 µg/mL) in data set [2]; 9.43 µM (≈ 3.63 µg/mL) in data set [3]; 21.4 µM (≈ 8.25 µg/mL) in [4]; 42.9 µM (≈ 16.5 µg/mL) in data set [5]; 172 µM (≈ 66.3 µg/mL) in data set [6]. Also, the MBC in data set [7] turned out to be 85.8 µM (≈ 33.1 µg/mL). In addition, the MIC in data set [1] was 20.3 µM (≈ 7.82 µg/mL); in [2] it was 37.8 µM (≈ 14.6 µg/mL); in [3], 4.71 µM (≈ 1.82 µg/mL); in data set [4] it was 2.68 µM (≈ 1.03 µg/mL); in data set [5], 2.68 µM (≈ 1.03 µg/mL); in data set [6] it was 5.36 µM (≈ 2.07 µg/mL). Further, in data set [7], the MIC amounted to 10.7 µM (≈ 4.12 µg/mL). Further, in data set [11], the Activity worked out at 19%.
Regarding `COc1ccc2c(c1)CCN2C(c1ccc(C)cc1)c1cc([N+](=O)[O-])ccc1O` (stereo unspecified), the MBC in [1] stood at 80 µM (≈ 31.2 µg/mL); in data set [2], 4.71 µM (≈ 1.84 µg/mL); in data set [3] it was 4.71 µM (≈ 1.84 µg/mL); in data set [4], 40 µM (≈ 15.6 µg/mL); in data set [5], 160 µM (≈ 62.5 µg/mL); in data set [6] it was 160 µM (≈ 62.5 µg/mL). In [7], the minimum bactericidal concentration (MBC) was 160 µM (≈ 62.5 µg/mL). In addition, the MIC in data set [1] is 20 µM (≈ 7.81 µg/mL); in [2] it was < 1.18 µM; in data set [3], < 1.18 µM; in data set [4] it was 10 µM (≈ 3.9 µg/mL); in [5] it was 10 µM (≈ 3.9 µg/mL); in data set [6], 20 µM (≈ 7.81 µg/mL). Also, the MIC in [7] is 20 µM (≈ 7.81 µg/mL).
The mortality is the share of the test organisms that died. Take `Cc1ccccc1C(c1cc([N+](=O)[O-])ccc1O)N1CCc2cc([N+](=O)[O-])ccc21` (stereo unspecified): the MBC in data set [1] was found to be 9.64 µM (≈ 3.91 µg/mL); in data set [2], 4.71 µM (≈ 1.91 µg/mL); in data set [3] it was 2.36 µM (≈ 0.957 µg/mL); in data set [4], 4.82 µM (≈ 1.95 µg/mL); in [5], 9.64 µM (≈ 3.91 µg/mL); in data set [6], 154 µM (≈ 62.4 µg/mL). Besides, in data set [7], the minimum bactericidal concentration (MBC) was 38.6 µM (≈ 15.6 µg/mL). For the same compound, the MIC is 2.41 µM (≈ 0.977 µg/mL) in [1]; < 1.18 µM in data set [2]; < 1.18 µM in data set [3]; 1.2 µM (≈ 0.486 µg/mL) in data set [4]; 1.2 µM (≈ 0.486 µg/mL) in data set [5]; 2.41 µM (≈ 0.977 µg/mL) in data set [6]. The MIC in data set [7] worked out at 1.2 µM (≈ 0.486 µg/mL). In data set [12], the mortality at 24 h, 10 ug/ml amounted to 3%. Moreover, the IC50 at 24 h in data set [9] came out at 121 µM.
For `O=[N+]([O-])c1ccc2c(c1)CCN2C(c1ccc(C(F)(F)F)cc1)c1cc([N+](=O)[O-])ccc1O` (stereo unspecified), the MBC in [2] was 2.36 µM (≈ 1.08 µg/mL); in data set [3], 18.9 µM (≈ 8.68 µg/mL); in data set [4] it was 1.11 µM (≈ 0.51 µg/mL); in [5] it was 8.89 µM (≈ 4.08 µg/mL); in data set [6] it was 142 µM (≈ 65.2 µg/mL); in data set [7], 35.6 µM (≈ 16.4 µg/mL). Besides, the MIC in data set [2] was < 1.18 µM; in [3], 9.43 µM (≈ 4.33 µg/mL); in data set [4], 1.11 µM (≈ 0.51 µg/mL); in data set [5], 1.11 µM (≈ 0.51 µg/mL); in data set [6], 4.45 µM (≈ 2.04 µg/mL); in data set [7], 2.22 µM (≈ 1.02 µg/mL). The IC50 in data set [13] is 5.8 µM. Also, in data set [9], the IC50 at 24 h is 292 µM. The Activity entry in data set [10] was “Toxic”.

The values are drawn from ChEMBL document CHEMBL4837201, “Increased antibacterial properties of indoline-derived phenolic Mannich bases” (Eur J Med Chem, 2021).
